The results in this text go back to patent publication US10597387B2, “Methods to treat lymphoplasmacytic lymphoma” (Dana-Farber Cancer Institute, Inc., priority 2013, dated 2020).

Test [1] addresses BTK (Homo sapiens (Human), UniProt Q06187). Briefly: Invitrogen Select Screening kinase assay. Type of test: biochemical. The following applies: in vitro. From the text: The in vitro activity of the compounds described herein in inhibiting TAK1, HCK, and other kinases were obtained using an Invitrogen Select Screening assay as known in the art. The IC50 values determined from this assay are shown below.

The subject of test [2] is OCI-Ly3. Briefly: CellTiter-Glo cell viability assay. Type of test: cell-based. The method, then: (§1) CellTiter-Glo® Luminescent cell viability assay (Promega) was used to assess cell survival following treatment with the compounds described. Cells were seeded into 384 well plates with the EL406 Combination Washer Dispenser (BioTek Instruments, Inc.), and the compounds were injected into the cells culture media with the JANUS Automated Workstation (PerkinElmer Inc.). Cells were treated with a series diluted inhibitors (20˜0.04 μM) for 72 hours at 37° C. Luminescent measurement is performed using the 2104 Envision® Multilabel Reader (PerkinElmer Inc.).
Background: Cellular ATP, detected with luciferase, serves as a proxy for viable cell number.

Test [3] relates to MWCL-1. As to the kind of experiment: CellTiter-Glo cell viability assay. Type of test: cell-based. The method, then: as §1
For test [4], the system named is Ramos. As to the kind of experiment: CellTiter-Glo cell viability assay. Conditions: 72 hours. Type of test: cell-based. As for the experimental part:
as §1

In test [5] the test system is OCI-Ly19. Briefly: CellTiter-Glo cell viability assay. Type of test: cell-based. Conditions: Homo sapiens, 72 hours. The method, then:
as §1

The test system of test [6] is RPCIWM-1. As to the kind of experiment: CellTiter-Glo cell viability assay. Type of test: cell-based. The following applies: 72 hours. The method, then: as §1
The test system of test [7] is BCWM.1. As to the kind of experiment: CellTiter-Glo cell viability assay. Type of test: cell-based. The method, then:
as §1

Test [8] has as its target HCK (Homo sapiens (Human), UniProt P08631). As to the kind of experiment: Invitrogen Select Screening kinase assay. Type of test: biochemical. Conditions: in vitro, read-out: HCK IC50 (nM) Inv.

By IC50 is commonly meant the concentration that gives 50% inhibition. By EC50 is commonly meant the midpoint of the concentration-response curve.

BTK, sequence (Q06187 whole entry): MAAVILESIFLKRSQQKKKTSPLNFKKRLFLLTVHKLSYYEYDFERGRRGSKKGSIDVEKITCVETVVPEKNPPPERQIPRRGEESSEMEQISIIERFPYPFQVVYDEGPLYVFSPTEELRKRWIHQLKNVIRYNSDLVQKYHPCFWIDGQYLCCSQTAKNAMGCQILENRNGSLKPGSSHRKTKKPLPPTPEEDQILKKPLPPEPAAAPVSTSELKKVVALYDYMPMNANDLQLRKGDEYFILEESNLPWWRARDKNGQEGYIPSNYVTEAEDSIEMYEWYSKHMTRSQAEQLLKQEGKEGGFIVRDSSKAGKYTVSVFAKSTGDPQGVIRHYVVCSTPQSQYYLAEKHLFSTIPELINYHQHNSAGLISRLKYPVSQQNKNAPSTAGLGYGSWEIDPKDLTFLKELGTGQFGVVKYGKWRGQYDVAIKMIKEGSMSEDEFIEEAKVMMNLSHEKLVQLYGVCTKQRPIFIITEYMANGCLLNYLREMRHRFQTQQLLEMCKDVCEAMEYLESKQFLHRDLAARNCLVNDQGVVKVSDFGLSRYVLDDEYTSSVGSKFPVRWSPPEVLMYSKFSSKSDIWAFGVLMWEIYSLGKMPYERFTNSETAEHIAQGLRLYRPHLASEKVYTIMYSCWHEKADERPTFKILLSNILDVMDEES
HCK, sequence (P08631 whole entry): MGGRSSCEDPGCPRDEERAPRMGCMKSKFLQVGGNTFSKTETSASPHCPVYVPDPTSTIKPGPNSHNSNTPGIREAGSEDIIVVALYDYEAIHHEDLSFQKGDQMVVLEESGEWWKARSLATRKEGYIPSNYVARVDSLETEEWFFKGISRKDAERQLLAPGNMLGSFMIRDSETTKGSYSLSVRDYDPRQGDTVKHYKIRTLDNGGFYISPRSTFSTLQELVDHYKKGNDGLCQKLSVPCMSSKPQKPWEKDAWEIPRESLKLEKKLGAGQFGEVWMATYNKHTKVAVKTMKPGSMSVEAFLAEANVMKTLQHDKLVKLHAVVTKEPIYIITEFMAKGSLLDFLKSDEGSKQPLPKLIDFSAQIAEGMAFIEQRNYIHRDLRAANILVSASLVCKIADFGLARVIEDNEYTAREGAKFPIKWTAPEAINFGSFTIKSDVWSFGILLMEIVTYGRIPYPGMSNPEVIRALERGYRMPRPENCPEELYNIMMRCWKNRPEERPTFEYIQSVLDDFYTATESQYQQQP

Regarding `Cc1cn(-c2cc(NC(=O)c3ccc(C)c(NC(=O)c4cncc(-c5cccs5)c4)c3)cc(C(F)(F)F)c2)cn1` [I-3, N-(2-methyl-5-((3-(4-methyl-1H-imidazol-1-yl)-5-(trifluoromethyl)phenyl)carbamoyl)phenyl)-5-(thiophen-2-yl)nicotinamide], in test [1], 196 nM corresponded to half-maximal inhibition (IC50). Besides, the EC50 in test [2] (Homo sapiens, OCI-Ly3, 72 h) amounted to 411 nM; in test [3] (72 h), 355 nM; in test [4] (Homo sapiens, Ramos), 555 nM; in test [5], 508 nM; in test [6] it was 725 nM; in test [7] (BCWM1, 72 h), 141 nM.
Turning to `CCN1CCN(Cc2ccc(NC(=O)c3ccc(C)c(NC(=O)c4cncc(-c5cnoc5)c4)c3)cc2C(F)(F)F)CC1` [I-8], the IC50 in test [1] was found to be 69.7 nM; in test [8], 5.33 nM.
On to `Cc1ccc(C(=O)Nc2cc(N3CCN(C)CC3)cc(C(F)(F)F)c2)cc1NC(=O)c1cncc(-c2cccs2)c1` [I-4, N-(2-methyl-5-((3-(4-methylpiperazin-1-yl)-5-(trifluoromethyl)phenyl)carbamoyl)phenyl)-5-(thiophen-2-yl)nicotinamide], for which it took 459 nM to reach half-maximal inhibition in test [1] (IC50).
Compound `CCN1CCN(Cc2ccc(C(=O)Nc3ccc(C)c(NC(=O)c4cncc(-c5cccs5)c4)c3)cc2C(F)(F)F)CC1` [I-1, N-(5-(4-((4-ethylpiperazin-1-yl)methyl)-3-(trifluoromethyl)benzamido)-2-methylphenyl)-5-(thiophen-2-yl)nicotinamide] yielded an IC50 in test [1] of 22.9 nM. Besides, the EC50 in test [2] (Homo sapiens, OCI-Ly3, 72 h) is 2900 nM; in test [3] (72 h), 459 nM; in test [4] (Homo sapiens, Ramos), 4150 nM; in test [5] it was 552 nM; in test [7] (BCWM1, 72 h), 38 nM.
With “N-(2-chloro-5-((4-((4- ethylpiperazin-1-yl)methyl)- 3-(trifluoromethyl)phenyl) carbamoyl)phenyl)-5- (thiophen-2-yl)nicotinamide [I-2]”, the half-maximal effective concentration (EC50) in test [2] (72 hours) was 161 nM; in test [3] (72 hours), 16 nM; in test [4] it was 60 nM; in test [6] it was 110 nM; in test [7] (72 hours) it was 12 nM.
Turning to `CCN1CCN(Cc2ccc(NC(=O)c3ccc(C)c(NC(=O)c4cncc(-c5cnn(C)c5)c4)c3)cc2C(F)(F)F)CC1` [I-9], the IC50 is 25.3 nM in test [1] and 2.43 nM in test [8].
Compound `Cc1ccc(C(=O)Nc2cc(N3CCOCC3)cc(N3CCOCC3)c2)cc1NC(=O)c1cncc(-c2cccs2)c1` [I-7, N-(5-((3,5-dimorpholinophenyl)carbamoyl)-2-methylphenyl)-5-(thiophen-2-yl)nicotinamide] yielded a half-inhibitory concentration (IC50) in test [1] of 3420 nM. The EC50 in test [2] (Homo sapiens, OCI-Ly3, 72 h) was 3540 nM; in test [3] (72 h), 1760 nM; in test [4] (Homo sapiens, Ramos), 2380 nM; in test [5], 2970 nM; in test [6], 4800 nM; in test [7] (BCWM1, 72 h), 180 nM.
`CCN1CCN(c2ccc(NC(=O)c3ccc(C)c(NC(=O)c4cncc(-c5cccs5)c4)c3)cc2C(F)(F)F)CC1` [I-5, N-(5-((4-(4-ethylpiperazin-1-yl)-3-(trifluoromethyl)phenyl)carbamoyl)-2-methylphenyl)-5-(thiophen-2-yl)nicotinamide]: in test [1], the midpoint of inhibition, the IC50, lay at 3910 nM. For the same compound, the EC50 in test [2] (Homo sapiens, OCI-Ly3, 72 h) stood at 2160 nM; in test [3] (72 h) it was 1090 nM; in test [4] (Homo sapiens, Ramos) it was 989 nM; in test [5], 1560 nM; in test [6], 0.02 nM; in test [7] (BCWM1, 72 h) it was 365 nM.
